Reference: PubChem BioAssay AID248 (DTP/NCI, 2004)
“And” between values parts separate entries of the source, which are not always exact repeats. Identical values can stand only once. Inconclusive results and toxic doses are left out. Rule as the data show it: active = T/C of 150% or more; inactive = T/C below 125%.

Tested on: L1210 leukemia ip in BDF1 mice, survival T/C
Assay: NCI In Vivo Anticancer Drug Screen. Data for tumor model L1210 Leukemia (intraperitoneal) in B6D2F1 (BDF1) mice
Settings: higher = longer survival
Summary of the method: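 Antitumor effect is assessed in tumor-bearing animals. Survival in the compound arm is compared with a vehicle-dosed control arm and expressed as their quotient.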

[1] = endpoint: mean survival time, dose: 100.0 mg/kg/injection, schedule: Q04DX002 (ip), vehicle: Klucel (hydroxypropylcellulose) (HPC)
[2] = endpoint: mean survival time, dose: 200.0 mg/kg/injection, schedule: Q04DX002 (ip), vehicle: Klucel (hydroxypropylcellulose) (HPC)
[3] = endpoint: mean survival time, dose: 400.0 mg/kg/injection, schedule: Q04DX002 (ip), vehicle: Klucel (hydroxypropylcellulose) (HPC)
[4] = endpoint: mean survival time, dose: 100.0 mg/kg/injection, schedule: Q04DX003 (ip), vehicle: Klucel (hydroxypropylcellulose) (HPC)
[5] = endpoint: mean survival time, dose: 200.0 mg/kg/injection, schedule: Q04DX003 (ip), vehicle: Klucel (hydroxypropylcellulose) (HPC)
[6] = endpoint: mean survival time, dose: 75.0 mg/kg/injection, schedule: Q01DX001 (ip), vehicle: carboxymethylcellulose (CMC)
[7] = endpoint: mean survival time, dose: 100.0 mg/kg/injection, schedule: Q01DX009 (ip), vehicle: saline with Tween-80

Measured: T/C

COc1cccc2c1C(=O)c1c(O)c3c(c(O)c1C2=O)CC(O)(C(=O)CO)CC3OC1CC(N)C(O)C(C)O1 (centres undefined)
active: endpoint: mean survival time, dose: 0.5 mg/kg/injection, schedule: Q01DX008 (ip), vehicle: saline 151 % of control | endpoint: mean survival time, dose: 1.0 mg/kg/injection, schedule: Q01DX008 (ip), vehicle: saline 158 % of control | endpoint: mean survival time, dose: 2.0 mg/kg/injection, schedule: Q01DX008 (ip), vehicle: saline 209 % of control | endpoint: median survival time, dose: 11.0 mg/kg/injection, schedule: Q01DX005 (ip), vehicle: water 177 % of control | endpoint: median survival time, dose: 19.0 mg/kg/injection, schedule: Q01DX005 (ip), vehicle: water 177 % of control | endpoint: median survival time, dose: 31.0 mg/kg/injection, schedule: Q01DX005 (ip), vehicle: water 155 % of control | endpoint: median survival time, dose: 51.6 mg/kg/injection, schedule: Q01DX005 (ip), vehicle: water 152 % of control | endpoint: median survival time, dose: 52.0 mg/kg/injection, schedule: Q04DX003 (ip), vehicle: water 194 % of control | endpoint: median survival time, dose: 87.0 mg/kg/injection, schedule: Q04DX003 (ip), vehicle: water 157 % of control and 172 % of control
inactive: endpoint: mean survival time, dose: 4.0 mg/kg/injection, schedule: Q01DX008 (ip), vehicle: saline 98 % of control | endpoint: median survival time, dose: 4.0 mg/kg/injection, schedule: Q01DX005 (ip), vehicle: water 121 % of control | endpoint: median survival time, dose: 6.0 mg/kg/injection, schedule: Q01DX005 (ip), vehicle: other 115 % of control | endpoint: median survival time, dose: 11.0 mg/kg/injection, schedule: Q01DX005 (ip), vehicle: other 123 % of control | endpoint: median survival time, dose: 11.0 mg/kg/injection, schedule: Q04DX003 (ip), vehicle: water 115 % of control | endpoint: median survival time, dose: 16.0 mg/kg/injection, schedule: Q01DX005 (ip), vehicle: other 123 % of control | endpoint: median survival time, dose: 31.0 mg/kg/injection, schedule: Q04DX003 (ip), vehicle: water 121 % of control | endpoint: median survival time, dose: 145.0 mg/kg/injection, schedule: Q04DX003 (ip), vehicle: water 110 % of control | endpoint: median survival time, dose: 242.0 mg/kg/injection, schedule: Q04DX003 (ip), vehicle: water 89 % of control

CCOC(=O)/C(O)=C\c1n[n+]([O-])ccc1Cl
inactive: [1] 104 % of control | [2] 112 % of control | [3] 93 % of control

CC1=C(C)C(=O)OC1=O
inactive: [4] 97 % of control | [5] 98 % of control

COC(=O)C1(O)CC(=O)CCC1c1ccccc1 (centres undefined)
inactive: [4] 105 % of control | [5] 94 % of control | endpoint: mean survival time, dose: 400.0 mg/kg/injection, schedule: Q04DX003 (ip), vehicle: Klucel (hydroxypropylcellulose) (HPC) 95 % of control

C/C(=C\C(C)C)C1(C)C(=O)NC(=O)NC1=O
inactive: endpoint: mean survival time, dose: 75.0 mg/kg/injection, schedule: Q01DX001 (ip), vehicle: other 96 % of control | endpoint: mean survival time, dose: 150.0 mg/kg/injection, schedule: Q01DX001 (ip), vehicle: other 109 % of control | endpoint: mean survival time, dose: 300.0 mg/kg/injection, schedule: Q01DX001 (ip), vehicle: other 105 % of control

O=C(O)C(CO)NS(=O)(=O)Cc1ccccc1 (centres undefined)
inactive: endpoint: mean survival time, dose: 100.0 mg/kg/injection, schedule: Q01DX001 (ip), vehicle: other 104 % of control | endpoint: mean survival time, dose: 200.0 mg/kg/injection, schedule: Q01DX001 (ip), vehicle: other 96 % of control | endpoint: mean survival time, dose: 400.0 mg/kg/injection, schedule: Q01DX001 (ip), vehicle: other 96 % of control

CC(=O)Oc1ccc(CCN(C)C2CC3CCC2(C)C3(C)C)cc1OC(C)=O (centres undefined)
inactive: endpoint: mean survival time, dose: 100.0 mg/kg/injection, schedule: Q01DX001 (ip), vehicle: saline 110 % of control | endpoint: mean survival time, dose: 200.0 mg/kg/injection, schedule: Q01DX001 (ip), vehicle: saline 93 % of control | endpoint: mean survival time, dose: 400.0 mg/kg/injection, schedule: Q01DX001 (ip), vehicle: saline 100 % of control

CC/C=C(\C)C1(CC)C(=O)NC(=S)NC1=O
inactive: [6] 89 % of control

N#CC1C=CCC1 (centres undefined)
inactive: endpoint: mean survival time, dose: 50.0 mg/kg/injection, schedule: Q01DX009 (ip), vehicle: saline with Tween-80 100 % of control | [7] 100 % of control

CC(NC(=O)c1ccccc1)C(=O)O (centres undefined)
inactive: endpoint: mean survival time, dose: 50.0 mg/kg/injection, schedule: Q01DX009 (ip), vehicle: Klucel (hydroxypropylcellulose) (HPC) 110 % of control | endpoint: mean survival time, dose: 100.0 mg/kg/injection, schedule: Q01DX009 (ip), vehicle: Klucel (hydroxypropylcellulose) (HPC) 91 % of control | [1] 90 % of control | [2] 108 % of control | [3] 93 % of control

CCN(CC)c1ccc(C(=O)OCCNC2CCCCC2)cc1
inactive: [6] 94 % of control | endpoint: mean survival time, dose: 150.0 mg/kg/injection, schedule: Q01DX001 (ip), vehicle: carboxymethylcellulose (CMC) 98 % of control

O=C1NC2(c3ccccc3)CCCCC2O1 (centres undefined)
inactive: endpoint: mean survival time, dose: 75.0 mg/kg/injection, schedule: Q01DX001 (ip), vehicle: acetone 98 % of control and 92 % of control | endpoint: mean survival time, dose: 150.0 mg/kg/injection, schedule: Q01DX001 (ip), vehicle: acetone 102 % of control | endpoint: mean survival time, dose: 300.0 mg/kg/injection, schedule: Q01DX001 (ip), vehicle: acetone 100 % of control and 89 % of control

O=c1cc(CO)occ1O
inactive: [7] 93 % of control | endpoint: mean survival time, dose: 100.0 mg/kg/injection, schedule: Q01DX009 (ip), vehicle: saline 92 % of control | endpoint: mean survival time, dose: 200.0 mg/kg/injection, schedule: Q01DX009 (ip), vehicle: saline with Tween-80 90 % of control | endpoint: mean survival time, dose: 200.0 mg/kg/injection, schedule: Q01DX009 (ip), vehicle: saline 106 % of control | endpoint: mean survival time, dose: 400.0 mg/kg/injection, schedule: Q01DX009 (ip), vehicle: saline with Tween-80 92 % of control | endpoint: mean survival time, dose: 400.0 mg/kg/injection, schedule: Q01DX009 (ip), vehicle: saline 97 % of control

CCCCNC1=C(N2CC2)C(=O)C(NCCCC)=C(N2CC2)C1=O
inactive: endpoint: mean survival time, dose: 1.25 mg/kg/injection, schedule: Q01DX001 (ip), vehicle: saline 105 % of control | endpoint: mean survival time, dose: 1.25 mg/kg/injection, schedule: Q01DX009 (ip), vehicle: saline 110 % of control and 111 % of control | endpoint: mean survival time, dose: 1.56 mg/kg/injection, schedule: Q04DX003 (ip), vehicle: Klucel (hydroxypropylcellulose) (HPC) 113 % of control | endpoint: mean survival time, dose: 2.5 mg/kg/injection, schedule: Q01DX001 (ip), vehicle: saline 100 % of control | endpoint: mean survival time, dose: 2.5 mg/kg/injection, schedule: Q01DX009 (ip), vehicle: saline 105 % of control and 109 % of control | endpoint: mean survival time, dose: 3.12 mg/kg/injection, schedule: Q04DX003 (ip), vehicle: Klucel (hydroxypropylcellulose) (HPC) 121 % of control | endpoint: mean survival time, dose: 5.0 mg/kg/injection, schedule: Q01DX001 (ip), vehicle: saline 98 % of control | endpoint: mean survival time, dose: 5.0 mg/kg/injection, schedule: Q01DX009 (ip), vehicle: saline 118 % of control | endpoint: mean survival time, dose: 10.0 mg/kg/injection, schedule: Q01DX001 (ip), vehicle: saline 105 % of control | endpoint: mean survival time, dose: 10.0 mg/kg/injection, schedule: Q01DX009 (ip), vehicle: saline 114 % of control | endpoint: mean survival time, dose: 12.5 mg/kg/injection, schedule: Q04DX003 (ip), vehicle: Klucel (hydroxypropylcellulose) (HPC) 110 % of control | endpoint: mean survival time, dose: 18.0 mg/kg/injection, schedule: Q04DX003 (ip), vehicle: Klucel (hydroxypropylcellulose) (HPC) 112 % of control

CC(=O)OCC1OC(n2ccc3c(=O)[nH]cnc32)C(OC(C)=O)C1OC(C)=O (centres undefined)
inactive: endpoint: mean survival time, dose: 25.0 mg/kg/injection, schedule: Q01DX015 (ip), vehicle: carboxymethylcellulose (CMC) 121 % of control | endpoint: mean survival time, dose: 50.0 mg/kg/injection, schedule: Q01DX001 (ip), vehicle: carboxymethylcellulose (CMC) 94 % of control | endpoint: mean survival time, dose: 50.0 mg/kg/injection, schedule: Q01DX015 (ip), vehicle: carboxymethylcellulose (CMC) 112 % of control | endpoint: mean survival time, dose: 100.0 mg/kg/injection, schedule: Q01DX001 (ip), vehicle: carboxymethylcellulose (CMC) 96 % of control | endpoint: mean survival time, dose: 200.0 mg/kg/injection, schedule: Q01DX001 (ip), vehicle: carboxymethylcellulose (CMC) 100 % of control | endpoint: mean survival time, dose: 400.0 mg/kg/injection, schedule: Q01DX001 (ip), vehicle: carboxymethylcellulose (CMC) 102 % of control

CC(=O)OCC1OC(OC2CCCc3c(O)c4c(c(O)c32)C(=O)c2ccccc2C4=O)C(OC(C)=O)C(OC(C)=O)C1OC(C)=O (centres undefined)
inactive: endpoint: mean survival time, dose: 40.0 mg/kg/injection, schedule: Q01DX001 (ip), vehicle: saline 86 % of control | endpoint: mean survival time, dose: 80.0 mg/kg/injection, schedule: Q01DX001 (ip), vehicle: saline 92 % of control
